Drawing on PubChem BioAssay (NCI), this text covers TGI for 13 compounds.

Some test systems named below: ACHN renal; OVCAR-3 ovarian; LOX IMVI melanoma; OVCAR-5 ovarian; HCT-15 colon; UACC-257 melanoma; SK-MEL-2 melanoma; SF-539 CNS; CAKI-1 renal; SK-MEL-5 melanoma; MDA-MB-231 breast.
Holding throughout (test): NCI tumour cell line growth inhibition, 48 h

Several values for one entry are separate records, joined by “and”; a condition that tells them apart may be missing. Identical values can stand only once.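 Results reflect a 48-hour exposure of cells in 96-well plates to compound at five concentrations. TGI denotes the concentration required for complete inhibition of growth.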

For the compound `COC(=O)CC1CC2(C(=O)OC)c3[nH]c4ccccc4c3CCN2C1=O` (stereo not drawn), the TGI in the test on ACHN renal, with OVCAR-3 ovarian, in the test with LOX IMVI melanoma, with OVCAR-5 ovarian, in the test on HCT-15 colon and in the test on UACC-257 melanoma was greater than 100 µM each time. In addition, the TGI in the test on SK-MEL-2 melanoma, with SF-539 CNS, in the test with CAKI-1 renal and in the test with SK-MEL-5 melanoma was greater than 100 µM each time.

Consider `O=C1/C(=C/c2ccc(Cl)cc2)Oc2ccccc21`, for which the TGI in the test on ACHN renal was 43.4 µM; in the test with OVCAR-3 ovarian it was greater than 100 µM; in the test with HCT-15 colon, greater than 100 µM; with UACC-257 melanoma it was greater than 100 µM; in the test with SF-539 CNS, 48.8 µM; in the test on CAKI-1 renal it was 12.6 µM. Also, the TGI was greater than 100 µM in the test on MDA-MB-231 breast and 42.1 µM with SK-MEL-5 melanoma.

Consider `Cc1ccc(NC(=O)C(=O)Cc2cccc[n+]2[O-])cc1C`, for which the TGI in the test on ACHN renal, in the test on OVCAR-3 ovarian, in the test with LOX IMVI melanoma, in the test with OVCAR-5 ovarian, in the test on HCT-15 colon and in the test on UACC-257 melanoma was greater than 100 µM in each case. The TGI in the test on SK-MEL-2 melanoma, with SF-539 CNS, in the test on CAKI-1 renal and with SK-MEL-5 melanoma was greater than 100 µM each time.

As to `CCCCCCCc1ccc(-c2nnc(N=Nc3ccc(OCCCCC)cc3)s2)s1`, the TGI in the test with ACHN renal, in the test on OVCAR-3 ovarian, in the test with OVCAR-5 ovarian, in the test with HCT-15 colon, in the test with UACC-257 melanoma and in the test with SK-MEL-2 melanoma was greater than 100 µM each time. Besides, the TGI in the test with SF-539 CNS, in the test with CAKI-1 renal, in the test on MDA-MB-231 breast and in the test with SK-MEL-5 melanoma was greater than 100 µM in each case.

Regarding `COc1ccc(/C=N/NC(=S)Nc2cc(C)ccc2OC)cc1`, the TGI with ACHN renal was greater than 100 µM; in the test with OVCAR-3 ovarian, greater than 100 µM; with LOX IMVI melanoma, greater than 100 µM; in the test on OVCAR-5 ovarian, 73 µM; in the test with HCT-15 colon it was greater than 100 µM; with SK-MEL-2 melanoma, 43.8 µM. The TGI in the test on SF-539 CNS is 49.3 µM; in the test on CAKI-1 renal, greater than 100 µM; with SK-MEL-5 melanoma, 30 µM.

As to `CC1=CCN(c2ccccn2)OC1c1ccccc1` (stereo not drawn), the TGI with ACHN renal, in the test with OVCAR-3 ovarian, in the test with LOX IMVI melanoma, in the test on OVCAR-5 ovarian, in the test with HCT-15 colon and in the test on UACC-257 melanoma was greater than 100 µM in each case. The TGI in the test on SK-MEL-2 melanoma, with SF-539 CNS and with CAKI-1 renal was greater than 100 µM each time.

For the compound `CCC(=C/[C@H](C)C/C=C/C(C)=C/[C@@H](C)C(=O)[C@@H](C)[C@H](O)[C@@H](C)CC)/C=C/[C@H]1CC=CC(=O)O1`, the TGI with ACHN renal was 1.89 µM and 10.9 µM; in the test with LOX IMVI melanoma, 1.22 µM; with OVCAR-5 ovarian it was 1.91 µM and 11 µM; in the test on HCT-15 colon it was 1.78 µM; in the test with UACC-257 melanoma, 2.22 µM and 18 µM; in the test with SK-MEL-2 melanoma, less than 0.0012 µM. Moreover, the TGI with SF-539 CNS is 0.174 µM and 1.35 µM; in the test on CAKI-1 renal it was 2.88 µM; in the test on SK-MEL-5 melanoma, 0.0182 µM.

Turning to `CCCCCCCCCCCCC1N=C(N)N2CCCC2=C1C(=O)OC` (stereo not drawn), the TGI amounted to 19.5 µM with ACHN renal; 5.11 µM with OVCAR-3 ovarian; 13 µM in the test with OVCAR-5 ovarian; 3.11 µM with HCT-15 colon; 3.73 µM with UACC-257 melanoma; 3.64 µM in the test with SK-MEL-2 melanoma. For the same compound, the TGI in the test with SF-539 CNS is 13.2 µM; in the test on CAKI-1 renal, 9.03 µM; in the test on MDA-MB-231 breast, 4.38 µM; in the test on SK-MEL-5 melanoma, 4.88 µM.

For `C/C(Nc1ccc(Cl)cc1)=C1/CCOC1=O`, the TGI in the test on ACHN renal, in the test with OVCAR-3 ovarian, in the test with OVCAR-5 ovarian, in the test on HCT-15 colon, with UACC-257 melanoma and with SK-MEL-2 melanoma was greater than 100 µM in each case. For the same compound, the TGI in the test on SF-539 CNS, with CAKI-1 renal and in the test on MDA-MB-231 breast was greater than 100 µM throughout.

Take `Cn1c(NC(=O)NC23CC4CC(CC(C4)C2)C3)nc2ccccc21`: the TGI in the test with ACHN renal, in the test with OVCAR-3 ovarian, in the test on LOX IMVI melanoma, in the test on OVCAR-5 ovarian, in the test with HCT-15 colon and in the test with UACC-257 melanoma was greater than 100 µM each time. The TGI with SK-MEL-2 melanoma, in the test on SF-539 CNS, in the test with CAKI-1 renal and in the test on SK-MEL-5 melanoma was greater than 100 µM in each case.

Take `C[n+]1c(-c2ccc(/C=N/NC(=O)C(=O)N/N=C/c3ccc(-c4cn5ccccc5[n+]4C)cc3)cc2)cn2ccccc21`: the TGI in the test on ACHN renal, in the test with OVCAR-3 ovarian, in the test with OVCAR-5 ovarian, with HCT-15 colon, in the test with UACC-257 melanoma and in the test with SK-MEL-2 melanoma was greater than 100 µM throughout. In addition, the TGI with SF-539 CNS, in the test on CAKI-1 renal, in the test on MDA-MB-231 breast and with SK-MEL-5 melanoma was greater than 100 µM in each case.

With `CC(C)=CC(=O)c1c(C(=O)O)nc2ccccc2[n+]1[O-]`, the TGI in the test on ACHN renal, in the test with LOX IMVI melanoma, in the test on OVCAR-5 ovarian, with HCT-15 colon, with UACC-257 melanoma and with SK-MEL-2 melanoma was greater than 100 µM in each case. The TGI in the test on SF-539 CNS, in the test with CAKI-1 renal and with SK-MEL-5 melanoma was greater than 100 µM each time.

`O=CC1=CCC2c3[nH]c4ccccc4c3CCN2C1` (stereo not drawn): the TGI is greater than 396 µM with ACHN renal; 314 µM in the test on OVCAR-3 ovarian; 111 µM in the test with LOX IMVI melanoma; greater than 396 µM with OVCAR-5 ovarian; 156 µM with HCT-15 colon; 347 µM with UACC-257 melanoma. Moreover, the TGI with SK-MEL-2 melanoma is 267 µM; with SF-539 CNS it was greater than 396 µM; in the test with CAKI-1 renal, greater than 396 µM; in the test with SK-MEL-5 melanoma, greater than 396 µM.
